Results from patent US20120283304A1, “Formulations of Temozolomide for Parenteral Administration” (SAHAJ LIFE SCIENCES PVT. LTD., priority 2009, published 2012).
Like-named read-outs stand apart in the source and are kept apart here.

Tests used:
[1] = Chemical parameters (assay and impurities) of the lyophilised formulations; assay type: physicochemical
Method: The formulations were analysed and the data is tabulated below: […]

[2] = cited from earlier work
[3] = cited from earlier work; remark: listed apart in the source

In the case of `Cn1nnc2c(C(N)=O)ncn2c1=O` [Temozolomide, 3-methyl-8-carbamoyl-imidazo[5,1-d]-1,2,3,5-tetrazin-4(3H)-one], the “% Assay” value [1] is reported as 100.3%, the “% Impurities AIC” value [1] is reported as 0.02% and the “% Impurities Any other maximum impurity” value [1] is reported as “Not detected”. For the same compound, the “% Impurities MTC-1” value [1] was “Not detected”, the “% Impurities Total impurities” value [1] was 0.04% and the Solubility in water [2] was “only slightly soluble”. The Stability ([3]; acidic pH less than 5) was “stable” and the Stability ([3]; pH greater than 7) was “unstable”.
